8 compounds from ChEMBL document CHEMBL1201862, “PubChem BioAssay data set” (2004) can be followed below.

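Where inhibition never reached the appropriate level, the endpoint shown equals the highest concentration tested. Otherwise, values were interpolated linearly from a five-concentration, 48-hour dose response in 96-well plates. GI50 marks 50% less growth.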 Active and inactive are the calls of the source. Cut-off read from the data, not from the text of the source: active = GI50 up to about 1.1 µM and inactive = higher. Bounds are passed on as bounds.

Among the test systems are TK-10; HCC 2998; HOP-62; UO-31; MCF7; A549; MDA-MB-435; SF-539; NCI-H226; RPMI-8226; UACC-62; SK-OV-3; COLO 205; SN12C; CCRF-CEM; HOP-92; MOLT-4; OVCAR-3; 786-0; SNB-78.
Common to all, as to assay: NCI tumour cell line growth inhibition, 48 h

Take `N#CCCN(CCC#N)c1ccc(/C=N\c2ccc(F)cc2)cc1`: the GI50 with TK-10 is > 24 µM (inactive); with HCC 2998 it was 1.33 µM (inactive); with HOP-62, 27.1 µM (inactive); in the assay with UO-31, 41.8 µM (inactive); with MCF7 it was > 100 µM (inactive); in the assay with A549, 43.1 µM (inactive). For the same compound, the GI50 is 17.3 µM (inactive) with MDA-MB-435; 15.2 µM (inactive) in the assay on SF-539; > 100 µM (inactive) with NCI-H226; > 39.8 µM (inactive) in the assay on RPMI-8226; 0.536 µM (active) in the assay on UACC-62; > 100 µM (inactive) with SK-OV-3. The GI50 in the assay with COLO 205 was 14 µM (inactive); in the assay with SN12C, > 75 µM (inactive); in the assay on CCRF-CEM, 20.8 µM (inactive); in the assay on HOP-92, > 100 µM (inactive); with MOLT-4, > 19.8 µM (inactive); with OVCAR-3 it was > 79.1 µM (inactive). The GI50 was > 31.3 µM (inactive) with 786-0 and > 100 µM (inactive) in the assay on SNB-78.

`COc1ccc2nc3ccccc3c(NCCN(C)CCCl)c2c1`: the GI50 is 1.62 µM (inactive) in the assay with TK-10; 0.67 µM (active) with HCC 2998; 0.869 µM (active) in the assay on HOP-62; 1.16 µM (inactive) with UO-31; 0.587 µM (active) in the assay on MCF7; 0.479 µM (active) with A549. Also, the GI50 is 0.364 µM (active) in the assay on MDA-MB-435; 0.388 µM (active) with SF-539; 0.608 µM (active) in the assay on NCI-H226; 0.247 µM (active) in the assay with RPMI-8226; 0.681 µM (active) in the assay with UACC-62; 0.861 µM (active) in the assay on SK-OV-3. In addition, the GI50 in the assay with COLO 205 was 0.299 µM (active); in the assay with SN12C, 0.319 µM (active); in the assay with CCRF-CEM, 0.353 µM (active); in the assay with HOP-92 it was 0.622 µM (active); in the assay with MOLT-4 it was 0.0429 µM (active); in the assay with OVCAR-3, 0.736 µM (active). In addition, the GI50 with 786-0 was 0.21 µM (active); in the assay on SNB-78, 0.902 µM (active).

`C=C(c1nc2ccc(Cl)cc2[nH]c1=O)C(O)c1ccc(C(O)C(=O)c2nc3ccc(Cl)cc3[nH]c2=O)cc1` (centres undefined): the GI50 is > 100 µM (inactive) in the assay with TK-10; > 100 µM (inactive) in the assay with HCC 2998; > 100 µM (inactive) with HOP-62; > 91 µM (inactive) with UO-31; > 100 µM (inactive) in the assay on MCF7; > 100 µM (inactive) in the assay with A549. Further, the GI50 in the assay with MDA-MB-435 is > 100 µM (inactive); with SF-539 it was > 100 µM (inactive); in the assay with NCI-H226, > 100 µM (inactive); in the assay with RPMI-8226 it was 9.06 µM (inactive); in the assay on UACC-62, > 79.6 µM (inactive); in the assay on SK-OV-3 it was > 100 µM (inactive). The GI50 with COLO 205 is > 100 µM (inactive); in the assay with SN12C, > 100 µM (inactive); in the assay on CCRF-CEM, 4.28 µM (inactive); in the assay on HOP-92, > 100 µM (inactive); with MOLT-4, 33.2 µM (inactive); in the assay on OVCAR-3, > 100 µM (inactive). Further, the GI50 in the assay with 786-0 and with SNB-78 was > 100 µM (inactive) throughout.

On to `C=C1COC(O)(C2OCOC(C3CC(=O)NC(=O)C3)C2O)C1C` (centres undefined), for which the GI50 is 0.00895 µM (active) with TK-10; 0.00278 µM (active) in the assay with HCC 2998; 0.00622 µM (active) in the assay with HOP-62; 0.00105 µM (active) in the assay with UO-31; 0.00268 µM (active) with MCF7; 0.00221 µM (active) in the assay with A549. Further, the GI50 in the assay with MDA-MB-435 is 0.00333 µM (active); with SF-539, 0.00185 µM (active); with NCI-H226, 0.00619 µM (active); with RPMI-8226 it was 0.00269 µM (active); in the assay on UACC-62 it was 0.00429 µM (active); in the assay with SK-OV-3 it was 0.00384 µM (active). Also, the GI50 was 0.00244 µM (active) in the assay on COLO 205; 0.00224 µM (active) in the assay on SN12C; 0.00106 µM (active) in the assay on CCRF-CEM; 0.00244 µM (active) in the assay on HOP-92; 0.0011 µM (active) in the assay on MOLT-4; 0.00356 µM (active) in the assay on OVCAR-3. The GI50 in the assay on 786-0 was 0.00512 µM (active); in the assay on SNB-78, 0.00718 µM (active).

Consider `CCOc1ccc(/N=C/c2ccnc3ccccc23)cc1`, for which the GI50 with TK-10 was 92.3 µM (inactive); in the assay on HCC 2998 it was 32.4 µM (inactive); with HOP-62, 54.6 µM (inactive); in the assay with UO-31 it was 45.2 µM (inactive); with MCF7, 5.98 µM (inactive); with A549, > 86.3 µM (inactive). In addition, the GI50 with MDA-MB-435 was 42.7 µM (inactive); in the assay on SF-539 it was 26.5 µM (inactive); in the assay on NCI-H226, 73.6 µM (inactive); with RPMI-8226, 6.53 µM (inactive); in the assay with UACC-62, 60.8 µM (inactive); with SK-OV-3 it was 67.8 µM (inactive). The GI50 in the assay with COLO 205 is 81.3 µM (inactive); in the assay with SN12C, 29 µM (inactive); with CCRF-CEM, 2.63 µM (inactive); in the assay on HOP-92 it was 49.8 µM (inactive); in the assay on MOLT-4, 5.9 µM (inactive); with OVCAR-3, 31 µM (inactive). For the same compound, the figures for the GI50 with 786-0 and in the assay on SNB-78 were 57.1 µM (inactive) and > 60.1 µM (inactive), respectively.

As to `CCC(=O)OC1CCn2c1nc1c2C(=O)C(C)=C(N2CC2)C1=O` (centres undefined), the GI50 in the assay with TK-10 is 0.0383 µM (active); in the assay with HCC 2998, 0.0615 µM (active); in the assay with HOP-62, 0.0697 µM (active); with UO-31 it was 0.0698 µM (active); with MCF7, 0.00637 µM (active); with A549, 0.115 µM (active). In addition, the GI50 in the assay on MDA-MB-435 was 0.0254 µM (active); in the assay on SF-539 it was 0.143 µM (active); in the assay with NCI-H226, 0.111 µM (active); in the assay on UACC-62 it was 0.0607 µM (active); in the assay with SK-OV-3, 0.103 µM (active); with COLO 205, 0.199 µM (active). Besides, the GI50 with SN12C was 0.0881 µM (active); in the assay on CCRF-CEM, 0.59 µM (active); in the assay on HOP-92 it was 1.53 µM (inactive); in the assay with MOLT-4 it was 3.41 µM (inactive); in the assay with OVCAR-3, 0.067 µM (active); in the assay on 786-0, 0.0841 µM (active). For the same compound, in the assay on SNB-78, the GI50 is 0.462 µM (active).

Take `CCC1(O)C(=O)OCc2c1cc1n(c2=O)Cc2cc3ccc(C=O)cc3nc2-1` (centres undefined): the GI50 in the assay on TK-10 is 54.3 µM (inactive); with HCC 2998, 4.62 µM (inactive); with HOP-62, 0.294 µM (active); with UO-31 it was 1.83 µM (inactive); in the assay with MCF7 it was 0.335 µM (active); in the assay with A549, 2.13 µM (inactive). Also, the GI50 is 7.18 µM (inactive) in the assay on MDA-MB-435; 0.551 µM (active) in the assay with SF-539; 1.58 µM (inactive) with NCI-H226; 2.79 µM (inactive) with RPMI-8226; 0.566 µM (active) in the assay on UACC-62; 2.2 µM (inactive) with SK-OV-3. Moreover, the GI50 in the assay with COLO 205 is 9.08 µM (inactive); with SN12C it was 0.387 µM (active); in the assay on CCRF-CEM, 0.0431 µM (active); with HOP-92, 11.1 µM (inactive); in the assay with MOLT-4, 0.132 µM (active); in the assay with OVCAR-3, 4.51 µM (inactive). Moreover, the GI50 with 786-0 is 0.608 µM (active); in the assay on SNB-78, 19.9 µM (inactive).

For `CC1(C)O[C@H]2OC3CCC(=O)CC3(O)[C@H]2O1` (some centres undefined), the GI50 in the assay on TK-10, with HCC 2998, with HOP-62, with UO-31, in the assay with MCF7 and in the assay with A549 was > 100 µM (inactive) each time. The GI50 in the assay with MDA-MB-435, in the assay with SF-539, in the assay with NCI-H226, in the assay with RPMI-8226, in the assay with UACC-62 and in the assay with SK-OV-3 was > 100 µM (inactive) each time. Moreover, the GI50 in the assay on COLO 205 is > 100 µM (inactive); in the assay on SN12C it was > 100 µM (inactive); in the assay with CCRF-CEM, > 100 µM (inactive); in the assay on HOP-92 it was > 73.3 µM (inactive); in the assay on MOLT-4 it was > 100 µM (inactive); in the assay with OVCAR-3 it was > 100 µM (inactive). In addition, the GI50 with 786-0 and in the assay with SNB-78 was > 100 µM (inactive) in each case.
